Laboratory results taken from PubChem BioAssay AID248 (DTP/NCI, 2004).
“And” between values parts separate entries of the source, which are not always exact repeats. Equal entries are not always repeated. Inconclusive results and toxic doses are left out. No stated cut-off is given here; in the data, active means T/C of 150% or more; inactive means T/C below 125%.

Test system: L1210 leukemia ip in BDF1 mice, survival T/C
Test: NCI In Vivo Anticancer Drug Screen. Data for tumor model L1210 Leukemia (intraperitoneal) in B6D2F1 (BDF1) mice
Settings: endpoint: mean survival time, higher = longer survival
Procedure, shortened: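 In this screen, tumor-bearing mice given compound are compared to those given vehicle, and their survival values are reported as a treated-to-control quotient.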

[1] = dose: 100.0 mg/kg/injection, schedule: Q01DX001 (ip), vehicle: Klucel (hydroxypropylcellulose) (HPC)
[2] = dose: 200.0 mg/kg/injection, schedule: Q01DX001 (ip), vehicle: Klucel (hydroxypropylcellulose) (HPC)
[3] = dose: 400.0 mg/kg/injection, schedule: Q01DX001 (ip), vehicle: Klucel (hydroxypropylcellulose) (HPC)
[4] = dose: 100.0 mg/kg/injection, schedule: Q01DX001 (ip), vehicle: saline
[5] = dose: 200.0 mg/kg/injection, schedule: Q01DX001 (ip), vehicle: saline
[6] = dose: 400.0 mg/kg/injection, schedule: Q01DX001 (ip), vehicle: saline
[7] = dose: 100.0 mg/kg/injection, schedule: Q04DX003 (ip), vehicle: Klucel (hydroxypropylcellulose) (HPC)
[8] = dose: 200.0 mg/kg/injection, schedule: Q04DX003 (ip), vehicle: Klucel (hydroxypropylcellulose) (HPC)
[9] = dose: 400.0 mg/kg/injection, schedule: Q04DX003 (ip), vehicle: Klucel (hydroxypropylcellulose) (HPC)
[10] = dose: 100.0 mg/kg/injection, schedule: Q01DX001 (ip), vehicle: saline with Tween-80
[11] = dose: 200.0 mg/kg/injection, schedule: Q01DX001 (ip), vehicle: saline with Tween-80
[12] = dose: 400.0 mg/kg/injection, schedule: Q01DX001 (ip), vehicle: saline with Tween-80
[13] = dose: 100.0 mg/kg/injection, schedule: Q04DX003 (ip), vehicle: saline
[14] = dose: 200.0 mg/kg/injection, schedule: Q04DX003 (ip), vehicle: saline

Measured: T/C

CC(C)=CCC1=C(Cl)C(=O)c2ccccc2C1=O
inactive: [1] 96 % of control | [2] 104 % of control | [3] 101 % of control

O=C1c2ccccc2-c2cc(Cl)c(N=Cc3ccc4c(c3)OCO4)cc21
inactive: dose: 100.0 mg/kg/injection, schedule: Q01DX001 (ip), vehicle: carboxymethylcellulose (CMC) 98 % of control | dose: 200.0 mg/kg/injection, schedule: Q01DX001 (ip), vehicle: carboxymethylcellulose (CMC) 102 % of control | dose: 400.0 mg/kg/injection, schedule: Q01DX001 (ip), vehicle: carboxymethylcellulose (CMC) 109 % of control

O=C(Nc1cc([N+](=O)[O-])ccc1Cl)N(Cc1ccccc1)c1ccccc1
inactive: dose: 12.5 mg/kg/injection, schedule: Q01DX009 (ip), vehicle: Klucel (hydroxypropylcellulose) (HPC) 94 % of control and 95 % of control | dose: 25.0 mg/kg/injection, schedule: Q01DX009 (ip), vehicle: Klucel (hydroxypropylcellulose) (HPC) 94 % of control and 97 % of control | dose: 50.0 mg/kg/injection, schedule: Q01DX009 (ip), vehicle: Klucel (hydroxypropylcellulose) (HPC) 89 % of control

COc1nc(C)c(C)n[n+]1C
inactive: dose: 75.0 mg/kg/injection, schedule: Q01DX001 (ip), vehicle: saline with Tween-80 107 % of control | dose: 150.0 mg/kg/injection, schedule: Q01DX001 (ip), vehicle: saline with Tween-80 104 % of control | dose: 300.0 mg/kg/injection, schedule: Q01DX001 (ip), vehicle: saline with Tween-80 111 % of control

CC(=O)Oc1ccc(OC(C)=O)c([N+](=O)[O-])c1
inactive: [4] 103 % of control | [5] 102 % of control | [6] 103 % of control

N#CCCN(Cc1ccncc1)CN1C(=O)c2ccccc2C1=O
inactive: dose: 100.0 mg/kg/injection, schedule: Q01DX009 (ip), vehicle: Klucel (hydroxypropylcellulose) (HPC) 101 % of control | dose: 200.0 mg/kg/injection, schedule: Q01DX009 (ip), vehicle: Klucel (hydroxypropylcellulose) (HPC) 87 % of control | dose: 400.0 mg/kg/injection, schedule: Q01DX009 (ip), vehicle: Klucel (hydroxypropylcellulose) (HPC) 96 % of control

CC(=O)COc1cccc(Cl)c1
inactive: [7] 104 % of control | [8] 98 % of control | [9] 97 % of control

O=C(Nc1ccc(S(=O)(=O)NC2CCCCC2)cc1)OC1CCCCCC1
inactive: [4] 94 % of control | [5] 94 % of control | [6] 88 % of control

Cc1cccc(N(CCOC(=O)Nc2ccc(Cl)cc2)CCOC(=O)Nc2ccc(Cl)cc2)c1
inactive: [4] 94 % of control | [5] 94 % of control | [6] 96 % of control

CC(=O)OC1CCC2(C)C(=CCC3C2CCC2(C)C(C(C)C(O)C4C(=O)OCC4C(c4ccccc4)(c4ccccc4)c4ccccc4)CCC32)C1 (stereo not given)
inactive: dose: 100.0 mg/kg/injection, schedule: Q04DX002 (sc), vehicle: gum acacia 95 % of control | dose: 200.0 mg/kg/injection, schedule: Q04DX002 (sc), vehicle: gum acacia 95 % of control | dose: 400.0 mg/kg/injection, schedule: Q04DX002 (sc), vehicle: gum acacia 92 % of control

CC(=O)/C(C)=C\c1ccc(O)cc1
inactive: dose: 100.0 mg/kg/injection, schedule: Q04DX003 (ip), vehicle: saline with Tween-80 91 % of control | dose: 200.0 mg/kg/injection, schedule: Q04DX003 (ip), vehicle: saline with Tween-80 98 % of control | dose: 400.0 mg/kg/injection, schedule: Q04DX003 (ip), vehicle: saline with Tween-80 102 % of control

CC1C(=O)c2cc3c(cc2CCN(C)Cc2c1ccc1c2OCO1)OCO3 (stereo not given)
inactive: dose: 5.0 mg/kg/injection, schedule: Q01DX001 (ip), vehicle: saline 103 % of control | dose: 9.5 mg/kg/injection, schedule: Q01DX001 (ip), vehicle: other 93 % of control | dose: 10.0 mg/kg/injection, schedule: Q01DX001 (ip), vehicle: saline 103 % of control | dose: 19.0 mg/kg/injection, schedule: Q01DX001 (ip), vehicle: other 104 % of control | dose: 20.0 mg/kg/injection, schedule: Q01DX001 (ip), vehicle: saline 101 % of control | dose: 40.0 mg/kg/injection, schedule: Q01DX001 (ip), vehicle: saline 101 % of control

Cc1ccc(S(=O)(=O)OC2CCC(N3C(=O)c4ccccc4C3=O)CC2)cc1 (stereo not given)
inactive: [10] 100 % of control | [11] 102 % of control | [12] 98 % of control

NNC(=O)c1nc2ccccc2s1
inactive: dose: 75.0 mg/kg/injection, schedule: Q01DX001 (ip), vehicle: other 96 % of control | dose: 150.0 mg/kg/injection, schedule: Q01DX001 (ip), vehicle: other 98 % of control

CN(C)CCC(O)c1ccc(Cl)cc1 (stereo not given)
inactive: [13] 102 % of control | [14] 98 % of control

COC(=O)c1cc(C(=O)OC(C)(C)C)c(-c2ccc(OC)c(OC)c2)c2cc(OC)c(OC)cc12
inactive: [4] 100 % of control | [5] 101 % of control | [6] 103 % of control

O=C1NC(c2ccccc2)(c2ccccc2)C(=O)N1CN1CCN(CN2C(=O)NC(c3ccccc3)(c3ccccc3)C2=O)CC1
inactive: dose: 6.25 mg/kg/injection, schedule: Q01DX009 (ip), vehicle: saline sonified 99 % of control | dose: 12.5 mg/kg/injection, schedule: Q01DX009 (ip), vehicle: saline sonified 100 % of control | dose: 25.0 mg/kg/injection, schedule: Q01DX009 (ip), vehicle: saline sonified 94 % of control | [1] 108 % of control | [2] 92 % of control | [3] 92 % of control

Cc1c(C)c2c(c(C)c1O)CC(CO)CO2 (stereo not given)
inactive: [10] 92 % of control | [11] 101 % of control | [12] 87 % of control

Oc1cc2ccccc2cc1O
inactive: dose: 100.0 mg/kg/injection, schedule: Q04DX002 (ip), vehicle: saline with Tween-80 104 % of control | dose: 200.0 mg/kg/injection, schedule: Q04DX002 (ip), vehicle: saline with Tween-80 97 % of control | dose: 400.0 mg/kg/injection, schedule: Q04DX002 (ip), vehicle: saline with Tween-80 93 % of control

CCOc1ccc(/C=C(\NC(=O)c2ccccc2)C(=O)Nc2ccccc2)cc1OC
inactive: [7] 100 % of control | [8] 87 % of control | [9] 91 % of control

CC[N+](C)(C)CCCOC(=O)C1C2CC3OC(=O)C1C3C2 (stereo not given)
inactive: dose: 25.0 mg/kg/injection, schedule: Q04DX003 (ip), vehicle: saline 101 % of control | dose: 50.0 mg/kg/injection, schedule: Q04DX003 (ip), vehicle: saline 105 % of control | [13] 103 % of control and 108 % of control | [14] 97 % of control

Clc1ccc(C2OCCO2)c(Cl)c1
inactive: [4] 97 % of control | [5] 92 % of control | [6] 87 % of control

CCCN(CCC)CCCN(CCC)CCCCN(CCC)CCCN(CCC)CCC
inactive: [4] 98 % of control

FC1(F)SC2C3CCC(C3)C2C1(F)F (stereo not given)
inactive: dose: 6.25 mg/kg/injection, schedule: Q04DX002 (ip), vehicle: saline with Tween-80 95 % of control | dose: 12.5 mg/kg/injection, schedule: Q04DX002 (ip), vehicle: saline with Tween-80 95 % of control | dose: 25.0 mg/kg/injection, schedule: Q04DX002 (ip), vehicle: saline with Tween-80 93 % of control
